From PubChem BioAssay (NCI)
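Exposure lasted 48 hours, with cells grown in 96-well plates and compounds tested at five concentrations. GI50 marks 50% less growth. The concentration for full growth arrest is given as TGI.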

Experiments:
Test in all cases: NCI-60 cell line screen, 48 h
HOP-62 NSCLC = test system: HOP-62 NSCLC
OVCAR-4 ovarian = test system: OVCAR-4 ovarian
SK-OV-3 ovarian = test system: SK-OV-3 ovarian
DMS 273 small cell lung = test system: DMS 273 small cell lung
TK-10 renal = test system: TK-10 renal
ACHN renal = test system: ACHN renal
T-47D breast = test system: T-47D breast
DU-145 prostate = test system: DU-145 prostate
MDA-MB-435 = test system: MDA-MB-435
MDA-MB-231 breast = test system: MDA-MB-231 breast

SMILES	TGI (HOP-62 NSCLC)	TGI (OVCAR-4 ovarian)	TGI (SK-OV-3 ovarian)	TGI (DMS 273 small cell lung)	TGI (TK-10 renal)	TGI (ACHN renal)	TGI (T-47D breast)	other results
O=C1CN2C(Cl)(Cl)C2(c2ccccc2)c2cc(Cl)ccc2N1CC(F)(F)F (configuration not stated)	60.7 µM	43.7 µM	> 100 µM	72.7 µM	> 100 µM	> 100 µM	–	–
CC1=C[C@]2(CC(C)C3C(CC4(C)C5CCC6C(C)(C)C(=O)CC[C@@]67C[C@@]57CC[C@]34C)O2)OC1=O (some centres not stated)	–	57.5 µM	–	32.6 µM	79 µM	> 100 µM	–	–
CCOc1ccc(/C=C/[N+](=O)[O-])cc1	26.3 µM	> 100 µM	–	–	24.7 µM	24.3 µM	42.8 µM	GI50 (HOP-62 NSCLC): 12.5 µM; GI50 (OVCAR-4 ovarian): 23.4 µM; GI50 (T-47D breast): 17.6 µM; GI50 (DU-145 prostate): 10.4 µM; TGI (DU-145 prostate): 22.2 µM; GI50 (MDA-MB-435): 3.18 µM; TGI (MDA-MB-435): 13.7 µM; GI50 (MDA-MB-231 breast): 7.91 µM; TGI (MDA-MB-231 breast): 20.9 µM; GI50 (TK-10 renal): 12 µM; GI50 (ACHN renal): 12 µM
O=C(Nc1ccc(Cl)cc1)/C(Cc1cccc[n+]1[O-])=N\Nc1ccc([N+](=O)[O-])cc1[N+](=O)[O-]	> 100 µM	> 100 µM	> 100 µM	> 100 µM	> 100 µM	> 100 µM	–	–
COc1c2c(cc3c(CCc4ccccc4)cc(=O)oc13)CCC(C)(C)O2	> 100 µM	–	> 100 µM	> 100 µM	> 100 µM	> 100 µM	–	–
CN1C2C=C(c3ccccc3)CC1CC2 (configuration not stated)	–	–	> 100 µM	–	> 100 µM	> 100 µM	–	–
CCOc1ccc2c(ccc(/C=C\c3cc(C)c4cccnc4c3O)[n+]2C)c1	28 µM	18.6 µM	10.4 µM	–	6 µM	21.4 µM	6.2 µM	TGI (DU-145 prostate): 18.6 µM; TGI (MDA-MB-435): 13.3 µM; TGI (MDA-MB-231 breast): 0.632 µM
Nc1ncnc2c1ncn2C1CCC(CO)O1 (configuration not stated)	> 100 µM	> 89.1 µM	> 100 µM	> 100 µM	–	–	–	–
CO/N=C1/c2sccc2[C@H](NC(=O)C(F)(F)F)[C@@H]1O	> 100 µM	> 100 µM	> 100 µM	–	> 100 µM	–	> 100 µM	TGI (DU-145 prostate): > 100 µM; TGI (MDA-MB-435): > 100 µM; TGI (MDA-MB-231 breast): > 100 µM
O=C1Nc2ccccc2Nc2nc3cccccc-3c21	> 100 µM	> 100 µM	> 100 µM	> 100 µM	> 100 µM	> 100 µM	–	–
COc1ccc(/C=N/NC(=O)NCCCN(C)C)cc1	–	–	> 100 µM	> 100 µM	> 100 µM	> 100 µM	–	–
O=C(Nc1nc2ccc([N+](=O)[O-])cc2[n+]([O-])n1)C(F)(F)F	–	> 100 µM	–	–	> 100 µM	90.8 µM	> 100 µM	TGI (DU-145 prostate): > 100 µM; TGI (MDA-MB-435): 32 µM; TGI (MDA-MB-231 breast): > 100 µM
[C-]#[O+].[Cl][Sn]([Cl])[Cl].[Cl][Sn]([Cl])[Cl].[Pt].c1ccncc1	> 100 µM	> 100 µM	> 100 µM	> 100 µM	–	–	–	–
c1ccc2c(c1)nc1n2CSC1	–	–	> 100 µM	> 100 µM	> 100 µM	> 100 µM	–	–
CN1CCN(Cc2ccc(NC(=O)c3ccc(C#N)c(C#Cc4cnc(N)c5ncccc45)c3)cc2C(F)(F)F)CC1	–	–	44.6 µM	–	–	3.15 µM	> 100 µM	GI50 (T-47D breast): 28.6 µM; GI50 (SK-OV-3 ovarian): 19.3 µM; GI50 (ACHN renal): 1.69 µM
